Assay type in all cases: binding
The target in test [1] is T1, TTN5 (TITAN 5) (Arabidopsis thaliana, UniProt Q9ZPX1).
T1 construct: gene ARL2
T1 sequence (Q9ZPX1 1-185 limits assumed): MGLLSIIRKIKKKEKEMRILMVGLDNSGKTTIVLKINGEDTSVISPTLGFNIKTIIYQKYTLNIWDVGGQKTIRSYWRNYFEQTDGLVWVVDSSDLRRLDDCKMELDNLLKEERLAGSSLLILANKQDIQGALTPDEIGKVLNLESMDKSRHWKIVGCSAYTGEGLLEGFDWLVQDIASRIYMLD
Briefly: pull-down of GST-TTN5, bound nucleotide by HPLC. The note with it: GST fusion; excess free GppNHp; single experiment.

Test [2] concerns the target T2, TTN5 (TITAN 5) (Arabidopsis thaliana, UniProt Q9ZPX1, T30N).
T2 construct: gene ARL2
T2 sequence (Q9ZPX1 1-185 T30N limits assumed): T1 sequence (Q9ZPX1 1-185 limits assumed) with T30N
Briefly: stopped-flow fluorimetry, koff/kon.

For test [3], the target named is T3, TTN5 (TITAN 5) (Arabidopsis thaliana, UniProt Q9ZPX1, Q70L).
T3 construct: gene ARL2
T3 sequence (Q9ZPX1 1-185 Q70L limits assumed): T1 sequence (Q9ZPX1 1-185 limits assumed) with Q70L
Nature of the test: stopped-flow fluorimetry, koff/kon.

Test [4] deals with T1, TTN5 (TITAN 5). Nature of the test: stopped-flow fluorimetry, koff/kon.

Structures are written as SMILES. Positions count from the first letter of the chain named.

For the molecule `Nc1nc2c(ncn2[C@@H]2O[C@H](COP(=O)(O)OP(=O)(O)NP(=O)(O)O)[C@@H](O)[C@H]2O)c(=O)[nH]1` [GppNHp], the “pull-down of GST-TTN5, bound nucleotide by HPLC” value on TTN5 (TITAN 5) [1] is reported as “Isolated GST–TTN5 bound to increasing amounts of GppNHp”.

Regarding `CNc1ccccc1C(=O)O[C@H]1C[C@H](n2cnc3c(=O)[nH]c(N)nc32)O[C@@H]1COP(=O)(O)OP(=O)(O)O` [mdGDP, 2-deoxy-3-O-N-methylanthraniloyl GDP], the Kd came to 3090 nM on TTN5 (TITAN 5) [2], 61 nM on TTN5 (TITAN 5) [3] and 267 nM on TTN5 (TITAN 5) [4].

The values are drawn from publication PMC11361645, “Characterization of the small Arabidopsis thaliana GTPase and ADP-ribosylation factor-like 2 protein TITAN 5” (Journal of Cell Science, 2024).
